Results from patent US20020098248A1, “Method for treating and/or preventing infections caused by methicillin-resistant Staphylococcus aureus” (priority 2000, published 2002).

System: Staphylococcus, particularly MRSA
Assay: Examination of catechin for antimicrobial effect
Assay type: cell-based
Conditions: catechin only, even if it has a high concentration

## catechin
  antimicrobial effect against Staphylococcus, particularly MRSA: does not provide a desired antimicrobial effect
